Data reported in patent US12448389B2, “BRM targeting compounds and associated methods of use” (Prelude Therapeutics Incorporated, priority 2020, dated 2025).

Key:
[1] = tested on: SMARCA4 mutated cancer cells; conditions: SMARCA2/4 bromodomain inhibitor; Vangamudi et al. Cancer Res 2015; cited from earlier work
SMARCA4 = molecular target: T1, SMARCA4 (Homo sapiens, UniProt P51532); assay: SMARCA4 protein degradation in NCIH520 cells by In Cell Western (ICW); type: cell-based; conditions: highest concentration 1 μM; for DC50: H520 cells, overnight incubation (maximum 18 hours), read-out: DC50 (SM4_H520): SMARCA4 degradation potency; for Dmax: NCI-H520, overnight incubation (maximum 18 hours), read-out: Dmax % (SM4_H520): maximum SMARCA4 degradation within the concentrations tested
T1 construct: endogenous in cells; host or cells: NCI-H520 (given as NCIH520 / NCIH1520 / H520)
Procedure: (§1) Compounds were dissolved in DMSO to make 10 mM stock and 3-fold series dilutions were further conducted keeping the highest concentration 10 μM. NCIH11693 and NCIH1520 cells were maintained in PRMI 1640 medium (Corning Cellgro, Catalog #: 10-040-CV) supplemented with 10% v/v FBS (GE Healthcare, Catalog #: SH30910.03) by splitting 1:3 twice a week.
(§2) SMACRA2 and SMARCA4 Protein Degradation DC50 Values in NCIH1693 and NCIH520 Cells by in Cell Western (ICW) Analysis.
(§3) Cells were trypsinized and 30 thousand cells/well were seeded into 384-well plates and were allowed to grow for 1-2 hours at 37° C. Eight-point, 3-fold serial dilutions of compounds from 0.5 mM stocks were added to the cells (using digital Dispenser D300-Tecan, keeping highest concentration 1 μM and normalizing with DMSO at the highest dispensed volume). Plates were incubated at 37° C. for overnight (maximum 18 hours). Cells incubated with DMSO was used as a vehicle control.
(§4) To perform In Cell Western, medium was removed from all the wells leaving cells attached to the surface. After removing the medium, cells were fixed within the plates with 40 μL of 4% formaldehyde by incubating at room temperature for 30 minutes, and then permeabilized with wash buffer (1×PBS with 0.1% Triton X-100) by washing the plate 5 times with 50 μL/well. Before labeling with primary antibodies, cells were blocked with 30 μL/well of blocking buffer (Licor Odyssey blocking buffer PBS #927-40000) for 30 minutes at room temperature. To measure SMARCA2 or SMARCA4 proteins, cells were labeled with 20 μL/well of anti SMARCA2 or SMACRA4 antibodies (Cell Signaling BRM #11966S 1:800, Cell Signaling BRG #49360S 1:800) diluted in Li-Cor Odyssey blocking buffer-PBS #927-40000, followed by overnight incubation at 4° C.
(§5) The next day, plates were washed 5×5 minutes with 50 μL/well of washing buffer to remove all the excess primary antibody and then 20 μL from a mixture of secondary antibody and fluorescent DNA specific dye (Goat anti rabbit 1:500 IRDye-800CW #92632211, and DRAQ5™ 1:2000-#ab108410) was added to each well. Plates were incubated for 1 hour at room temperature with gentle rocking. Cells were washed 5 times with 50 μL/well wash buffer, followed by one last wash with DI water, followed by 10 mins drying at 37° C. oven before scanning. Plates were scanned using Li-Cor Odyssey CLx imaging system to acquire integrated intensities at 700 nm and 800 nm. SMARCA signals were normalized to total cell count and then these normalized values were used to calculate the percent degradation relative to DMSO control and maximum inhibition. DC50s were calculated by using the GraphPad Prism4 program based on sigmoidal dose response equation ([Inhibitor] vs. normalized response-Variable slope).
(§6) In Table 36, the DC50/Dmax% (SM2_H520) refers to SMARCA2 degradation potency/maximum SMARCA2 degradation within the concentrations in H520 cells and DC50/Dmax% (SM4_H520) refers to SMARCA4 degradation potency/maximum SMARCA4 degradation within the concentrations tested in H520 cells.

SMARCA2 = molecular target: T2, SMARCA2 (Homo sapiens, UniProt P51531); assay: SMARCA2 protein degradation in NCIH520 cells by In Cell Western (ICW); type: cell-based; conditions: highest concentration 1 μM; for DC50: H520 cells, overnight incubation (maximum 18 hours), read-out: DC50 (SM2_H520): SMARCA2 degradation potency; for Dmax: NCI-H520, overnight incubation (maximum 18 hours), read-out: Dmax % (SM2_H520): maximum SMARCA2 degradation within the concentrations tested
T2 construct: endogenous in cells; host or cells: NCI-H520 (given as NCIH520 / NCIH1520 / H520)
Procedure: as §1, §2, §3, §4, §5, §6

T2 sequence (P51531 whole entry): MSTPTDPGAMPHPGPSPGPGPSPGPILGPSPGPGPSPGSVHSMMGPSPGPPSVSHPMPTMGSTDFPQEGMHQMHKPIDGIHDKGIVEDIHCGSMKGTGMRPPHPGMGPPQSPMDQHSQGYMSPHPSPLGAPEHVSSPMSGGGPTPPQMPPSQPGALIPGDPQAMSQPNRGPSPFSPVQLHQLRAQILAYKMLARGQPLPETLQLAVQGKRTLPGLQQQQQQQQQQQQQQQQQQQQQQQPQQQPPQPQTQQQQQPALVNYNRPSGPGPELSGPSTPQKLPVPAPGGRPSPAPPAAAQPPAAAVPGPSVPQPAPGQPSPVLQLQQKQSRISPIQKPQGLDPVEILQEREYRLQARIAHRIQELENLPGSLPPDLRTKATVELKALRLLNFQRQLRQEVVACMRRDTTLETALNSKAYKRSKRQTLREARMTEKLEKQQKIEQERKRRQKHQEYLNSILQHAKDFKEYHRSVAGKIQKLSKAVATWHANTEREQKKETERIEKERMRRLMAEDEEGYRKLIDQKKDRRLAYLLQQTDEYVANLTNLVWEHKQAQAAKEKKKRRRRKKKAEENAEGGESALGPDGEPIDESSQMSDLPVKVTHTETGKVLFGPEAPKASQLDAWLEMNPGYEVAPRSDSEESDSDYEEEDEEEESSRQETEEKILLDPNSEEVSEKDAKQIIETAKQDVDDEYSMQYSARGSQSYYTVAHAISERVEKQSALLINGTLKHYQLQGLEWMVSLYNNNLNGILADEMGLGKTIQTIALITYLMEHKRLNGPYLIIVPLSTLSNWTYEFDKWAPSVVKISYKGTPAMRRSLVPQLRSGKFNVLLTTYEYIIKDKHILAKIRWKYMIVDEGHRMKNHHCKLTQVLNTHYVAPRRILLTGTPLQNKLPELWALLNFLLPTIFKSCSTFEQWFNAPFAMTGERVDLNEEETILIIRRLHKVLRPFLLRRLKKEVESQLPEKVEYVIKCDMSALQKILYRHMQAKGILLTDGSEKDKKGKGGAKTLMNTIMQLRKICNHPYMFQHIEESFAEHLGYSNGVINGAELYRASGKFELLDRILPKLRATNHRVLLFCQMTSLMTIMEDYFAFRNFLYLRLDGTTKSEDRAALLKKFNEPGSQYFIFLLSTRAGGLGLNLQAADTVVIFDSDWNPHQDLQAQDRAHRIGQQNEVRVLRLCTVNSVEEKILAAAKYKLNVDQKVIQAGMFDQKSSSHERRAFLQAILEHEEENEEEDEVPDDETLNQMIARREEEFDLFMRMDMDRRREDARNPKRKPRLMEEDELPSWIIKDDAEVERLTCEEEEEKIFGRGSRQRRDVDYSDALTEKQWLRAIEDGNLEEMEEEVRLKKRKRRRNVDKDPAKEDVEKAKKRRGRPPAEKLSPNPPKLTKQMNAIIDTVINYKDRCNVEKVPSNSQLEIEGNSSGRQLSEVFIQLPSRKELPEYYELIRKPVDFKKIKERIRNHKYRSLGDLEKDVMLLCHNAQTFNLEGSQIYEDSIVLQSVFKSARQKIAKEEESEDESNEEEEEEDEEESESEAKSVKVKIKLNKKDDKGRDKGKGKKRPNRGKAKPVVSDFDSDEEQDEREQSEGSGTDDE
T1 sequence (P51532 whole entry): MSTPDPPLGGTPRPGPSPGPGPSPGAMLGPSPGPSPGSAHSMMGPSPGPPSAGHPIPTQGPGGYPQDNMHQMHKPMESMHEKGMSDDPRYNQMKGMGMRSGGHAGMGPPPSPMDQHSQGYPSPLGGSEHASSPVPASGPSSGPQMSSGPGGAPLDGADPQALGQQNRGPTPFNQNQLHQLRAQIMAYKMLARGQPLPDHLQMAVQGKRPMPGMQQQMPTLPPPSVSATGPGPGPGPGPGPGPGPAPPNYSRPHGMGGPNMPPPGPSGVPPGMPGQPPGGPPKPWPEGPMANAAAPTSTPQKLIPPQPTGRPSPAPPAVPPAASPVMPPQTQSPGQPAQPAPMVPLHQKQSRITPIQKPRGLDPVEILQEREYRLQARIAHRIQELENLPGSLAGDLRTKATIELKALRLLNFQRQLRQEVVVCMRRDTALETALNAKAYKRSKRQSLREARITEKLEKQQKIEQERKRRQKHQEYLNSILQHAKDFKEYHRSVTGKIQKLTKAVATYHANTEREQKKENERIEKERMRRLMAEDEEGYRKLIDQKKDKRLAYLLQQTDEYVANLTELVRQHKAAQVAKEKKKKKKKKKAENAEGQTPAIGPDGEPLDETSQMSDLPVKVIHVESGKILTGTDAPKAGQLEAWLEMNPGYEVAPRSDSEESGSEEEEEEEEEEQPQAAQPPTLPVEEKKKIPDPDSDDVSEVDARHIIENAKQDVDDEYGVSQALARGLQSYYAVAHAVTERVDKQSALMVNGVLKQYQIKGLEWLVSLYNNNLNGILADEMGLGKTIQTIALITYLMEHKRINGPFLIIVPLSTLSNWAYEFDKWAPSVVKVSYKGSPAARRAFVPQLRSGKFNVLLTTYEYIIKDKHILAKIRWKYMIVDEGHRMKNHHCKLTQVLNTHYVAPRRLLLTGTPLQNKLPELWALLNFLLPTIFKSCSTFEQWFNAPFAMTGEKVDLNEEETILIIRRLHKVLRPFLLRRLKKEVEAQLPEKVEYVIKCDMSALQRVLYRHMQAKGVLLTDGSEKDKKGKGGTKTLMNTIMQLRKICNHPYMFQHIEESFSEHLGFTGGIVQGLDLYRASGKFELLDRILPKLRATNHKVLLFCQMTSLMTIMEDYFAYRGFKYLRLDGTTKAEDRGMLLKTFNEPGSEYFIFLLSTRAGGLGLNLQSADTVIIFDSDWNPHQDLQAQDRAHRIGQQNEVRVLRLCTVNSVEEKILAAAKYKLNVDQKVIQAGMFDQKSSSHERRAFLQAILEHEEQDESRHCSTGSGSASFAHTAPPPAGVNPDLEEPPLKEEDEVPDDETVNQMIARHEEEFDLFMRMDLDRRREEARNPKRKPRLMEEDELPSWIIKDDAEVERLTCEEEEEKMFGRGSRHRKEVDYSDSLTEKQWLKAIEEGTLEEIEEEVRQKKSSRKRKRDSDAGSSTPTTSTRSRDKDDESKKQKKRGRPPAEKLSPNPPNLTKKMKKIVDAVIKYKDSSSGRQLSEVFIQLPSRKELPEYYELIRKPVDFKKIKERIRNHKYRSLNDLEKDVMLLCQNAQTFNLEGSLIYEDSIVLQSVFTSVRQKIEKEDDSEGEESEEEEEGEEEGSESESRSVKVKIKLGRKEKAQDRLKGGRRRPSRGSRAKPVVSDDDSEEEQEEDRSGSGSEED

| Structure (SMILES) | effects on cell proliferation inhibition [1] | DC50 (SMARCA4) [nM] | Dmax (SMARCA4) [%] | DC50 (SMARCA2) [nM] | Dmax (SMARCA2) [%] |
| --- | --- | --- | --- | --- | --- |
| O=C(/C=C/N1C[C@H]2C[C@@H]1CN2c1ccccn1)c1ccccc1O [PFI-3] | none to minor effects | – | – | – | – |
| O=C1CCC(N2Cc3cc(CCN4CCC(c5cnc(N6CCN7c8cc(-c9ccccc9O)nnc8NC[C@H]7C6)nc5)CC4)ccc3C2=O)C(=O)N1 (stereo partly drawn) [Example 1, 3-(5-(2-(4-(2-((S)-2-(2-hydroxyphenyl)-5,6,6a,7,9,10-hexahydro-8H-pyrazino [1′,2′:4,5]pyrazino[2,3-c]pyridazin-8-yl)pyrimidin-5-yl)piperidin-1-yl)ethyl)-1-oxoiso-indolin-2-yl)piperidine-2,6-dione] | – | < 100 | > 75 | < 100 | > 75 |
| O=C1CCC(n2c3ccc(CCCN4CCC(c5cnc(N6CCN7c8cc(-c9ccccc9O)nnc8NC[C@@H]7C6)nc5)CC4)cc3c3cccnc32)C(=O)N1 (stereo partly drawn) [Example 18, 3-(6-(3-(4-(2-((R)-2-(2-hydroxyphenyl)-5,6,6a,7,9,10-hexahydro-8H-pyrazino [1′,2′:4,5]pyrazino[2,3-c]pyridazin-8-yl)pyrimidin-5-yl)piperidin-1-yl)propyl)-9H-pyrido [2,3-b]indol-9-yl)piperidine-2,6-dione] | – | < 100 | > 75 | < 100 | > 75 |
| O=C1CCC(N2C(=O)c3ccc(N4CCC(N5CCC(N6CCN7c8cc(-c9ccccc9O)nnc8NC[C@H]7C6)CC5)CC4)cc3C2=O)C(=O)N1 (stereo partly drawn) [Example 14, 2-(2,6-dioxopiperidin-3-yl)-5-(4-((S)-2-(2-hydroxyphenyl)-5,6,6a,7,9,10-hexahydro-8H-pyrazino[1′,2′:4,5]pyrazino[2,3-c]pyridazin-8-yl)-[1,4′-bipiperidin]-1′-yl) isoindoline-1,3-dione] | – | < 100 | > 75 | < 100 | > 75 |
| O=C1CCC(n2c3ccc(CCCN4CCC(N5CC(N6CCN7c8cc(-c9ccccc9O)nnc8NC[C@H]7C6)C5)CC4)cc3c3cccnc32)C(=O)N1 (stereo partly drawn) [Example 21, 3-(6-(3-(4-(3-((S)-2-(2-hydroxyphenyl)-5,6,6a,7,9,10-hexahydro-8H-pyrazino [1′,2′:4,5]pyrazino[2,3-c]pyridazin-8-yl)azetidin-1-yl)piperidin-1-yl)propyl)-9H-pyrido[2,3-b]indol-9-yl)piperidine-2,6-dione] | – | < 100 | > 75 | < 100 | > 75 |
| O=C1CCC(N2C(=O)c3ccc(N4CCC(N5CCC(N6CCN7c8cc(-c9ccccc9O)nnc8NC[C@H]7C6)CC5)C4)cc3C2=O)C(=O)N1 (stereo partly drawn) [Example 13, 2-(2,6-Dioxopiperidin-3-yl)-5-(3-(4-((S)-2-(2-hydroxyphenyl)-5,6,6a,7,9,10-hexahydro-8H-pyrazino[1′,2′:4,5]pyrazino[2,3-c]pyridazin-8-yl)piperidin-1-yl)pyrrolidin-1-yl) isoindoline-1,3-dione] | – | < 100 | > 75 | < 100 | > 75 |
